The values that follow come from ChEMBL document CHEMBL1201862, “PubChem BioAssay data set” (2004).

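1) Cells in 96-well plates. 2) Compound, 48 h, 5 concentrations. 3) Linear interpolation between surrounding doses. 4) Unreached endpoint = highest concentration. The concentration for 50% growth inhibition is given as GI50.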 The source made the active and inactive calls. Cut-off read from the data, not from the text of the source: active = GI50 up to about 1.1 µM and inactive = higher.

Among the test systems are A498; A549; CAKI-1; COLO 205; HCC 2998; HCT-15; HL-60; Hs-578T; IGROV-1; KM12; M14; MCF7; MDA-MB-231; MDA-N; Malme-3M; NCI/ADR-RES; RPMI-8226; SF-295; SK-MEL-5; UO-31.
Holding throughout (assay): NCI anticancer screen, dose series, 48 h

For `CC(=O)SC(C[N+](=O)[O-])c1ccc2c(c1)OCO2` (stereo not given), the GI50 in the assay with A498 is 3.02 µM (inactive); in the assay on A549, 14.2 µM (inactive); in the assay on CAKI-1, 6.56 µM (inactive); in the assay on COLO 205, 6.37 µM (inactive); in the assay on HCC 2998, 1.73 µM (inactive); with HCT-15, 3.32 µM. In addition, the GI50 in the assay on HL-60 was 1.97 µM (inactive); in the assay on Hs-578T it was 12.9 µM (inactive); in the assay on IGROV-1, 5.2 µM (inactive); in the assay with KM12, 4.75 µM (inactive); in the assay on M14, 5.9 µM (inactive); in the assay on MCF7, 3 µM (inactive). The GI50 was 7.45 µM (inactive) with MDA-MB-231; 2.1 µM (inactive) in the assay with MDA-N; 8.11 µM (inactive) with Malme-3M; 11.6 µM (inactive) with NCI/ADR-RES; 1.39 µM (inactive) in the assay on RPMI-8226; 10.9 µM (inactive) in the assay on SF-295. In addition, the results for the GI50 in the assay on SK-MEL-5 and with UO-31 were 6.95 µM (inactive) and 5.46 µM (inactive), respectively.
As for `O=S(=O)(c1ccccc1)c1cccc2c1NCCC2`, the GI50 in the assay with A498 was > 100 µM (inactive); in the assay on A549 it was 33.3 µM (inactive); in the assay on CAKI-1, 27.9 µM (inactive); in the assay on COLO 205 it was > 10 µM (inactive); in the assay with HCC 2998 it was 13.5 µM (inactive); in the assay with HCT-15, 32.4 µM. The GI50 in the assay with HL-60 was 21.8 µM (inactive); in the assay on Hs-578T it was 52.1 µM (inactive); in the assay with IGROV-1 it was 52.5 µM (inactive); in the assay on KM12 it was 44.2 µM (inactive); with M14 it was 75.5 µM (inactive); in the assay with MCF7, 40.8 µM (inactive). Also, the GI50 with MDA-MB-231 is 39.6 µM (inactive); with MDA-N, 47.2 µM (inactive); with Malme-3M it was 29.1 µM (inactive); in the assay on NCI/ADR-RES it was 38.5 µM (inactive); in the assay on RPMI-8226, 56.1 µM (inactive); in the assay with SF-295 it was 31 µM (inactive). In addition, the GI50 is 23.2 µM (inactive) in the assay on SK-MEL-5 and 27.5 µM (inactive) with UO-31.
As for `C=CC/C(C(=O)OC)=C(/C(=O)OC)N(CCC)CCC`, the GI50 in the assay with A498 is > 100 µM (inactive); with A549 it was > 100 µM (inactive); in the assay with CAKI-1, > 100 µM (inactive); in the assay with COLO 205 it was 99.5 µM (inactive); with HCC 2998 it was > 100 µM (inactive); with HCT-15 it was over 100 µM. Also, the GI50 is 23 µM (inactive) in the assay with HL-60; > 100 µM (inactive) in the assay on Hs-578T; > 100 µM (inactive) with IGROV-1; > 100 µM (inactive) with KM12; > 100 µM (inactive) with M14; 63.2 µM (inactive) in the assay with MCF7. In addition, the GI50 in the assay on MDA-MB-231 was > 100 µM (inactive); in the assay with MDA-N, > 100 µM (inactive); with Malme-3M it was > 100 µM (inactive); in the assay on NCI/ADR-RES, > 100 µM (inactive); in the assay on RPMI-8226, 41.9 µM (inactive); in the assay with SF-295 it was > 100 µM (inactive). In addition, the GI50 is > 100 µM (inactive) in the assay with SK-MEL-5 and 94.8 µM (inactive) in the assay with UO-31.
Take `CCCn1c2ccccc2c2ccc3c(c21)C(=O)C=CC3=O`: the GI50 is > 10 µM (inactive) with A498; > 10 µM (inactive) in the assay with A549; 2.78 µM (inactive) in the assay with CAKI-1; 2.39 µM (inactive) in the assay on COLO 205; > 9.68 µM (inactive) with HCC 2998; 2.24 µM in the assay on HCT-15. For the same compound, the GI50 in the assay with HL-60 is 0.938 µM (active); in the assay with Hs-578T, 7.03 µM (inactive); in the assay with IGROV-1, 3.31 µM (inactive); in the assay with KM12, > 10 µM (inactive); in the assay with M14, 2.18 µM (inactive); in the assay on MCF7, 2.19 µM (inactive). Besides, the GI50 in the assay with MDA-MB-231 was 2.06 µM (inactive); with MDA-N, 2.65 µM (inactive); in the assay with Malme-3M, 1.83 µM (inactive); in the assay on NCI/ADR-RES, 2.9 µM (inactive); in the assay on RPMI-8226 it was 2.12 µM (inactive); in the assay on SF-295, > 10 µM (inactive). Moreover, the values for the GI50 in the assay with SK-MEL-5 and with UO-31 were > 7.91 µM (inactive) and 4.06 µM (inactive), respectively.
As to `N=C(N)Nc1ccc(CC(N)C(=O)O)cc1` (stereo not given), the GI50 with A498 was > 12.5 µM (inactive); in the assay with A549, > 12.5 µM (inactive); in the assay on CAKI-1, > 12.5 µM (inactive); with COLO 205, > 12.5 µM (inactive); with HCC 2998, > 12.5 µM (inactive); in the assay with HCT-15, over 12.5 µM. The GI50 with HL-60, in the assay with Hs-578T, with IGROV-1, with KM12, in the assay on M14 and in the assay with MCF7 was > 12.5 µM (inactive) in each case. Further, the GI50 with MDA-MB-231, in the assay with MDA-N, with Malme-3M, with NCI/ADR-RES, with RPMI-8226 and in the assay with SF-295 was > 12.5 µM (inactive) throughout. Also, the GI50 with SK-MEL-5 and in the assay with UO-31 was > 12.5 µM (inactive) in each case.
In the case of `Cc1ccc(-c2c(C#N)c(N)[nH]c(=S)c2C#N)cc1`, the GI50 in the assay on A498 was 35.2 µM (inactive); in the assay on A549, 58.5 µM (inactive); in the assay on CAKI-1, 49.8 µM (inactive); in the assay with COLO 205, 24 µM (inactive); with HCC 2998, 26.7 µM (inactive); in the assay with HCT-15, 38.7 µM. For the same compound, the GI50 is 17.3 µM (inactive) in the assay on HL-60; 18.5 µM (inactive) in the assay on Hs-578T; 43.3 µM (inactive) with IGROV-1; 40.8 µM (inactive) in the assay with KM12; 43.6 µM (inactive) in the assay on M14; 32 µM (inactive) with MCF7. The GI50 was 34.8 µM (inactive) in the assay on MDA-MB-231; 18.5 µM (inactive) with MDA-N; 26.4 µM (inactive) in the assay on Malme-3M; 31.7 µM (inactive) in the assay on NCI/ADR-RES; 17.7 µM (inactive) in the assay on RPMI-8226; 32.8 µM (inactive) with SF-295. The GI50 with SK-MEL-5 is 23.4 µM (inactive); with UO-31, 40.3 µM (inactive).
For `Nc1nccc(Nc2ccc(S(N)(=O)=O)cc2)n1`, the GI50 was > 100 µM (inactive) in the assay on A498; > 100 µM (inactive) in the assay on A549; > 100 µM (inactive) with CAKI-1; > 100 µM (inactive) with COLO 205; > 100 µM (inactive) in the assay on HCC 2998; over 100 µM in the assay with HCT-15. The GI50 in the assay with HL-60, with Hs-578T, in the assay on IGROV-1, in the assay with KM12, with M14 and in the assay on MCF7 was > 100 µM (inactive) throughout. Also, the GI50 in the assay on MDA-MB-231, in the assay with MDA-N, with Malme-3M, with NCI/ADR-RES, with RPMI-8226 and in the assay with SF-295 was > 100 µM (inactive) in each case. Also, the GI50 with SK-MEL-5 and in the assay on UO-31 was > 100 µM (inactive) each time.
